Laboratory results from ChEMBL document CHEMBL1909046, “DrugMatrix in vitro pharmacology data”.

Assays:
[1] = DRUGMATRIX: Glutamate, AMPA radioligand binding (ligand: [3H] AMPA); assay type: cell membranes, Rattus norvegicus, Wistar, Cerebral cortex, Membrane; conditions: Not Active = under 50% inhibition at 10 µM
[2] = biological target: Prostaglandin G/H synthase 1 (Homo sapiens, UniProt P23219); assay: biochemical; assay type: tissue-based, Platelet;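 also: inhibition of COX-1 enzyme activity, with arachidonic acid supplied as substrate; in other assays of this panel Not Active means under 50% inhibition at 10 µM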
Chain of Prostaglandin G/H synthase 1 (P23219 whole entry): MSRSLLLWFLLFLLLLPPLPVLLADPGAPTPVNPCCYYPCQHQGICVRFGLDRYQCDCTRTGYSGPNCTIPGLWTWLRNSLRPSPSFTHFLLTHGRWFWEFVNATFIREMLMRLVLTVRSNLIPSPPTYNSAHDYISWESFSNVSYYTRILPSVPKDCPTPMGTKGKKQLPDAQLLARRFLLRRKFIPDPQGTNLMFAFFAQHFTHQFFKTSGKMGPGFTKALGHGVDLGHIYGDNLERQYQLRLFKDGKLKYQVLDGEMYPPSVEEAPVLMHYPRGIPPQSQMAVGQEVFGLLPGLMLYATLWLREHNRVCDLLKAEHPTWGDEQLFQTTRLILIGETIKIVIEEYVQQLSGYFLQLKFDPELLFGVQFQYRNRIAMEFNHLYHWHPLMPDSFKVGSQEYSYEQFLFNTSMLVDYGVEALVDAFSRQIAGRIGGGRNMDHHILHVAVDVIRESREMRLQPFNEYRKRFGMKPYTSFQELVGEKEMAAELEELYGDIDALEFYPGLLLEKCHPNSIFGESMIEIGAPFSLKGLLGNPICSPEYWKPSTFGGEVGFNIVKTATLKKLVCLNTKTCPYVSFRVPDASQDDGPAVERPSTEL

[3] = biological target: Substance-P receptor (Homo sapiens, UniProt P25103); assay type: cell membranes, Membrane; conditions: cho; also: in other assays of this panel Not Active means under 50% inhibition at 10 µM
Chain of Substance-P receptor (P25103 whole entry): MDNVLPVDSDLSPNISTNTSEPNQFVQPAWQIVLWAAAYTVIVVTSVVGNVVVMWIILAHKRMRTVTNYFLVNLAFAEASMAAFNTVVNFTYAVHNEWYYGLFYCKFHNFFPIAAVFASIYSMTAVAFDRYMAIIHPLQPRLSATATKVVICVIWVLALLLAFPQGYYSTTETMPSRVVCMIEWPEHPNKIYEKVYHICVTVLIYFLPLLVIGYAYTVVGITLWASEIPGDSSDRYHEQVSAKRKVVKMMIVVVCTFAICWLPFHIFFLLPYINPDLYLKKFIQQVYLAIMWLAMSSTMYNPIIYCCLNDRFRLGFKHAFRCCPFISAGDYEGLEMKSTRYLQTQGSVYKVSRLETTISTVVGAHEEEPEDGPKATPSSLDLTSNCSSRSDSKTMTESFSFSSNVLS

[4] = biological target: Sodium-dependent dopamine transporter (Homo sapiens, UniProt Q01959); assay: DRUGMATRIX: Dopamine Transporter radioligand binding (ligand: [125I] RTI-55); assay type: cell membranes, CHO-K1, Membrane; conditions: cho-k1; Not Active = under 50% inhibition at 10 µM
Chain of Sodium-dependent dopamine transporter (Q01959 whole entry): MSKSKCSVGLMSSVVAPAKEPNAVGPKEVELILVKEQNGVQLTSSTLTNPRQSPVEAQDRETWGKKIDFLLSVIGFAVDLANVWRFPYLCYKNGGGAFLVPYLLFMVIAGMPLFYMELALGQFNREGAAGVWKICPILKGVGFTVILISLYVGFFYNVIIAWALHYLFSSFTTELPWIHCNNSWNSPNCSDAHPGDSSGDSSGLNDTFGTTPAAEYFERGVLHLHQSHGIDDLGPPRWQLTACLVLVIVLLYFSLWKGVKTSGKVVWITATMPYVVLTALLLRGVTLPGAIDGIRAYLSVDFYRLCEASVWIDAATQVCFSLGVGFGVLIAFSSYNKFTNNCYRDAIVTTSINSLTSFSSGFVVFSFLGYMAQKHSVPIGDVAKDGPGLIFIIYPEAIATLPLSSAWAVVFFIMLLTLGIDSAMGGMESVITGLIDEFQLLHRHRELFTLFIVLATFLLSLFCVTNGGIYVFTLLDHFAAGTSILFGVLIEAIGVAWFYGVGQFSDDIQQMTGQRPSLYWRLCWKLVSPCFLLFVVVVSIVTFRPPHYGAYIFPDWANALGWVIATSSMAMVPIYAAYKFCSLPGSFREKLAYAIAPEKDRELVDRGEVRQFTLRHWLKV

[5] = biological target: D(3) dopamine receptor (Homo sapiens, UniProt P35462); assay: DRUGMATRIX: Dopamine D3 radioligand binding (ligand: [3H] Spiperone); assay type: cell membranes, CHO, Membrane; conditions: for Ki: read-out: Ki
Chain of D(3) dopamine receptor (P35462 whole entry): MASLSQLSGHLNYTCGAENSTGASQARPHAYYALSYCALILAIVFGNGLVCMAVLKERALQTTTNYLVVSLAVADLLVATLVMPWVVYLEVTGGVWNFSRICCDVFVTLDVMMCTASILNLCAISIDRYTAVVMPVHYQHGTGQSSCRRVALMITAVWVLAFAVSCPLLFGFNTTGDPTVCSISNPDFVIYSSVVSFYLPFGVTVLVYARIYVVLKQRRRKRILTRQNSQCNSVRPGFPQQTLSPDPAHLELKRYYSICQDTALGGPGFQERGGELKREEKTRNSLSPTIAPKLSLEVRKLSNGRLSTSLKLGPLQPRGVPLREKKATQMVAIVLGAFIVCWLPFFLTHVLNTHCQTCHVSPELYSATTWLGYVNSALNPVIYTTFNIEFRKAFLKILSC

[6] = biological target: Beta-2 adrenergic receptor (Homo sapiens, UniProt P07550); assay: DRUGMATRIX: Adrenergic beta2 radioligand binding (ligand: [3H] CGP-12177); assay type: cell membranes, CHO, Membrane; conditions: cho; Not Active = under 50% inhibition at 10 µM
Chain of Beta-2 adrenergic receptor (P07550 whole entry): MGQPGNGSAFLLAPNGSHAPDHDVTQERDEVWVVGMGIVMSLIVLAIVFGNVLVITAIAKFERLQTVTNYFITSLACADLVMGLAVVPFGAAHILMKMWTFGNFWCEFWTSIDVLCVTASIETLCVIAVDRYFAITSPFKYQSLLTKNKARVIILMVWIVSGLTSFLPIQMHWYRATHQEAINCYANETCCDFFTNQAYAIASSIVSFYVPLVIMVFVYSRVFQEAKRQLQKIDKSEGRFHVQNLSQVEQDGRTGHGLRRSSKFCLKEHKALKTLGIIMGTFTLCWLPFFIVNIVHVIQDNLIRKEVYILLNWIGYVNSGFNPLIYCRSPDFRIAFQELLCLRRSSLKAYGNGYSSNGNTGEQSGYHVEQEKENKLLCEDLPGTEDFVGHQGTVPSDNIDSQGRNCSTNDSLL

Row | SMILES | IC50 [1] | Ki [1] | IC50 ([2]; platelet) | IC50 [3] | IC50 [4] | IC50 ([5]; cho) | IC50 [6] | IC50 ([5]; read-out: IC50) | Ki [5] | IC50 ([2]; read-out: IC50)
1 | Nn1nnc2ccccc21 | Not Active | Not Active | Not Active | Not Active | Not Active | Not Active | Not Active | – | – | –
2 | CC[C@]1(O)CC[C@H]2[C@@H]3CCC4=CCCC[C@@H]4[C@H]3CC[C@@]21C | Not Active | Not Active | Not Active | Not Active | Not Active | Not Active | Not Active | – | – | –
3 | N[C@@H](Cc1ccc(F)cc1)C(=O)O | Not Active | Not Active | Not Active | Not Active | Not Active | Not Active | Not Active | – | – | –
4 | CCOC(=O)[C@H](CCc1ccccc1)N[C@@H](C)C(=O)N1Cc2ccccc2C[C@H]1C(=O)O | Not Active | Not Active | Not Active | Not Active | Not Active | Not Active | Not Active | – | – | –
5 | O=C(c1ccccc1Cl)N1CCC(Cc2ccccc2)CC1 | Not Active | Not Active | Not Active | Not Active | Not Active | Not Active | Not Active | – | – | –
6 | CCOC(=O)[C@H](CCc1ccccc1)N[C@@H](C)C(=O)N1CCC[C@H]1C(=O)O | Not Active | Not Active | Not Active | Not Active | Not Active | Not Active | Not Active | – | – | –
7 | Clc1cc2c(cc1Cl)Oc1cc(Cl)c(Cl)cc1O2 [2,3,7,8-TETRACHLORODIBENZO-P-DIOXIN] | Not Active | Not Active | Not Active | Not Active | Not Active | Not Active | Not Active | – | – | –
8 | C=C1/C(=C\C=C2/CCC[C@]3(C)[C@@H]([C@H](C)CCCC(C)C)CC[C@@H]23)C[C@@H](O)C[C@@H]1O [ALFACALCIDOL] | Not Active | Not Active | Not Active | Not Active | Not Active | Not Active | Not Active | – | – | –
9 | CCCCCC[C@H]1C(=O)O[C@H](C)[C@H](NC(=O)c2cccc(NC=O)c2O)C(=O)O[C@@H](C)[C@@H]1OC(=O)CC(C)C [ANTIMYCIN A] | Not Active | Not Active | Not Active | Not Active | Not Active | Not Active | Not Active | – | – | –
10 | C[C@@H]1CC[C@H]2[C@@H](C)C(=O)O[C@@H]3O[C@@]4(C)CC[C@@H]1[C@]32OO4 [ARTEMISININ] | Not Active | Not Active | Not Active | Not Active | Not Active | Not Active | Not Active | – | – | –
11 | CO[C@H]1[C@@H](O)[C@H](N)[C@@H](O[C@H]2O[C@H]([C@H](C)N)CC[C@H]2N)[C@H](O)[C@@H]1N(C)C(=O)CN [ASTROMICIN] | Not Active | Not Active | Not Active | Not Active | Not Active | Not Active | Not Active | – | – | –
12 | [N-]=[N+]=CC(=O)OC[C@H](N)C(=O)O [AZASERINE] | Not Active | Not Active | Not Active | Not Active | Not Active | Not Active | Not Active | – | – | –
13 | CC[C@H]1OC(=O)[C@H](C)[C@@H](O[C@H]2C[C@@](C)(OC)[C@@H](O)[C@H](C)O2)[C@H](C)[C@@H](O[C@@H]2O[C@H](C)C[C@H](N(C)C)[C@H]2O)[C@](C)(O)C[C@@H](C)CN(C)[C@H](C)[C@@H](O)[C@]1(C)O [AZITHROMYCIN] | Not Active | Not Active | Not Active | Not Active | Not Active | Not Active | Not Active | – | – | –
14 | CC(C)(C)c1ccc(S(=O)(=O)/C=C/C#N)cc1 [BAY-11-7085] | Not Active | Not Active | Not Active | Not Active | Not Active | – | Not Active | 3460 nM | 1170 nM | –
15 | CCc1oc2ccccc2c1C(=O)c1cc(Br)c(O)c(Br)c1 [BENZBROMARONE] | Not Active | Not Active | Not Active | Not Active | Not Active | Not Active | Not Active | – | – | –
16 | O=c1cc(-c2ccccc2)oc2ccc3ccccc3c12 [BETA-NAPHTHOFLAVONE] | Not Active | Not Active | Not Active | Not Active | Not Active | Not Active | Not Active | – | – | –
17 | CC(C)C[C@H]1C(=O)N2CCC[C@H]2[C@]2(O)O[C@](NC(=O)[C@@H]3C=C4c5cccc6[nH]c(Br)c(c56)C[C@H]4N(C)C3)(C(C)C)C(=O)N12 [BROMOCRIPTINE] | Not Active | Not Active | Not Active | Not Active | Not Active | – | Not Active | 0.596 nM | 0.202 nM | –
18 | CS(=O)(=O)OCCCCOS(C)(=O)=O [BUSULFAN] | Not Active | Not Active | Not Active | Not Active | Not Active | Not Active | Not Active | – | – | –

Row | SMILES | IC50 [1] | Ki [1] | IC50 ([2]; platelet) | IC50 [3] | IC50 [4] | IC50 ([5]; cho) | IC50 [6] | IC50 ([5]; read-out: IC50) | Ki [5] | IC50 ([2]; read-out: IC50)
19 | O=C(/C=C/c1ccc(O)c(O)c1)OCCc1ccccc1 [CAFFEIC ACID PHENETHYL ESTER] | Not Active | Not Active | – | Not Active | Not Active | Not Active | Not Active | – | – | 833 nM
20 | COc1cc(CNC(=O)CCCC/C=C/C(C)C)ccc1O [CAPSAICIN] | Not Active | Not Active | – | Not Active | Not Active | Not Active | Not Active | – | – | 1550 nM
21 | NC(=O)N1c2ccccc2C=Cc2ccccc21 [CARBAMAZEPINE] | Not Active | Not Active | Not Active | Not Active | Not Active | Not Active | Not Active | – | – | –
22 | CCOC(=O)n1ccn(C)c1=S [CARBIMAZOLE] | Not Active | Not Active | Not Active | Not Active | Not Active | Not Active | Not Active | – | – | –
23 | Oc1ccccc1O [CATECHOL] | Not Active | Not Active | Not Active | Not Active | Not Active | Not Active | Not Active | – | – | –
24 | CO[C@@]1(NC(=O)CSCC#N)C(=O)N2C(C(=O)O)=C(CSc3nnnn3C)CS[C@@H]21 [CEFMETAZOLE] | Not Active | Not Active | Not Active | Not Active | Not Active | Not Active | Not Active | – | – | –
25 | CN(C(=O)CCCOc1ccc2[nH]c(=O)ccc2c1)C1CCCCC1 [CILOSTAMIDE] | Not Active | Not Active | Not Active | Not Active | Not Active | Not Active | Not Active | – | – | –
26 | CC(C)(Oc1ccc(C2CC2(Cl)Cl)cc1)C(=O)O (stereo not given) [CIPROFIBRATE] | Not Active | Not Active | Not Active | Not Active | Not Active | Not Active | Not Active | – | – | –
27 | Nc1nc(Cl)nc2c1ncn2[C@H]1C[C@H](O)[C@@H](CO)O1 [CLADRIBINE] | Not Active | Not Active | Not Active | Not Active | Not Active | Not Active | Not Active | – | – | –
28 | CC[C@H]1OC(=O)[C@H](C)[C@@H](O[C@H]2C[C@@](C)(OC)[C@@H](O)[C@H](C)O2)[C@H](C)[C@@H](O[C@@H]2O[C@H](C)C[C@H](N(C)C)[C@H]2O)[C@](C)(OC)C[C@@H](C)C(=O)[C@H](C)[C@@H](O)[C@]1(C)O [CLARITHROMYCIN] | Not Active | Not Active | Not Active | Not Active | Not Active | Not Active | Not Active | – | – | –
29 | CCC[C@@H]1C[C@@H](C(=O)N[C@@H]([C@H]2O[C@H](SC)[C@H](O)[C@@H](O)[C@H]2O)[C@H](C)Cl)N(C)C1 [CLINDAMYCIN] | Not Active | Not Active | Not Active | Not Active | Not Active | Not Active | Not Active | – | – | –
30 | O=C(O)c1cc(=O)c2c(OCC(O)COc3cccc4oc(C(=O)O)cc(=O)c34)cccc2o1 [CROMOLYN] | Not Active | Not Active | Not Active | Not Active | Not Active | Not Active | Not Active | – | – | –
31 | O=P1(N(CCCl)CCCl)NCCCO1 (stereo not given) [CYCLOPHOSPHAMIDE ANHYDROUS] | Not Active | Not Active | Not Active | Not Active | Not Active | Not Active | Not Active | – | – | –
32 | CC(=O)O[C@]1(C(C)=O)CC[C@H]2[C@@H]3C=C(Cl)C4=CC(=O)[C@@H]5C[C@@H]5[C@]4(C)[C@H]3CC[C@@]21C [CYPROTERONE ACETATE] | Not Active | Not Active | Not Active | Not Active | Not Active | Not Active | Not Active | – | – | –
33 | Nc1nc(N)nc(NC2CC2)n1 [CYROMAZINE] | Not Active | Not Active | Not Active | Not Active | Not Active | Not Active | Not Active | – | – | –
34 | C[C@H](C(=O)O)c1cccc(C(=O)c2ccccc2)c1 [DEXKETOPROFEN] | Not Active | Not Active | – | Not Active | Not Active | Not Active | Not Active | – | – | –
35 | CC(C(=O)O)c1ccc(-c2ccccc2)c(F)c1 (stereo not given) [FLURBIPROFEN] | Not Active | Not Active | – | Not Active | Not Active | Not Active | Not Active | – | – | –
